Measurements taken from ChEMBL document CHEMBL5696439 (Cancer Res, 2010).
Activity calls are given as the source filed them. The calls are words filed in the database; no cut-off is given here.

Tests used:
[1] = biological target: Homeodomain-interacting protein kinase 1 (Homo sapiens) (UniProt Q86Z02); experiment: Inhibition of recombinant human GST-tagged HIPK1 (158-555 residues) expressed in insect cells at 2 uM using Ser/Thr 09 as substrate measured after 1 hr by Z'-LYTE assay relative to control; conditions: Insect cell
[2] = test system: MDA-MB-361; experiment: Antiproliferative activity against human MDA-MB-361 cells assessed as cell growth inhibition incubated for 1 days by MTS assay; type: functional, cell-based; conditions: MDA-MB-361, 24 h
[3] = test system: Epidermal growth factor receptor (Homo sapiens), P00533 [L861Q]; experiment: Inhibition of recombinant human GST-tagged EGFR L861Q mutant (668-1210 residues) expressed in insect cells at 2 uM using Tyr 04 as substrate measured after 1 hr by Z'-LYTE assay relative to control; conditions: Insect cell
Sequence of Epidermal growth factor receptor (Homo sapiens), P00533 [L861Q] (P00533 whole entry L861Q, the tested form may be a part): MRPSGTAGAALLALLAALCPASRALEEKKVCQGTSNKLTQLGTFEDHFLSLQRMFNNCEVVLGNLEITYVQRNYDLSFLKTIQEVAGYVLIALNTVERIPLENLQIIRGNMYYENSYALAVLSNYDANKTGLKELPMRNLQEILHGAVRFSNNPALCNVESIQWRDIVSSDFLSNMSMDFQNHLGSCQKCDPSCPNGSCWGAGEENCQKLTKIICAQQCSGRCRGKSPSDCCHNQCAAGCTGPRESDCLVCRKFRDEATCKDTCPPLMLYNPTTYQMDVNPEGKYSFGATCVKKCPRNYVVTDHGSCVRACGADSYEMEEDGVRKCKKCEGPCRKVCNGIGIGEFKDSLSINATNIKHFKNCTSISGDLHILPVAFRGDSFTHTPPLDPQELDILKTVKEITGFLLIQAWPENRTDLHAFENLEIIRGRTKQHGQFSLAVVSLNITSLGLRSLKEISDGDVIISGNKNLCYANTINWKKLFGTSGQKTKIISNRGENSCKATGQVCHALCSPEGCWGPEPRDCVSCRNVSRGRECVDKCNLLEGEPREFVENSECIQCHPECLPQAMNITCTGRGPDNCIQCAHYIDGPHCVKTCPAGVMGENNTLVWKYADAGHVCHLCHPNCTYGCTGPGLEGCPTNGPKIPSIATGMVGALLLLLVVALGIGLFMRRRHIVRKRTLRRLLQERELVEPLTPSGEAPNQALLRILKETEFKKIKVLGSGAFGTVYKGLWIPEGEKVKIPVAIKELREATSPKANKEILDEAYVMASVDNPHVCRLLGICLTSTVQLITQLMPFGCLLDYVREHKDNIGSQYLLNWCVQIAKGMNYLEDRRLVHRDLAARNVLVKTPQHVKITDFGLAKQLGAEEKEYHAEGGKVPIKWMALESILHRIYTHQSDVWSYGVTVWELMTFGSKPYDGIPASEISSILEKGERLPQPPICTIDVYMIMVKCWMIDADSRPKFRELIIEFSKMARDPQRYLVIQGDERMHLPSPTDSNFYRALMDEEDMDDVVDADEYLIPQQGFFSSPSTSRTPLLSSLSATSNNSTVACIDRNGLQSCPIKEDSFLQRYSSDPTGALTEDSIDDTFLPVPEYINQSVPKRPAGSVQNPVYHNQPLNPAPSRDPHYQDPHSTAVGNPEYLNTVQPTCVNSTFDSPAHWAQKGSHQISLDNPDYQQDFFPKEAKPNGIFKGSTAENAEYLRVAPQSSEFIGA

[4] = biological target: Death-associated protein kinase 3 (Homo sapiens) (UniProt O43293); experiment: Inhibition of recombinant human full-length GST-tagged DAPK3 expressed in insect cells at 2 uM using Ser/Thr 13 as substrate measured after 1 hr by Z'-LYTE assay relative to control; conditions: Insect cell
[5] = biological target: Dual specificity mitogen-activated protein kinase kinase 2 (Homo sapiens) (UniProt P36507); experiment: Inhibition of recombinant human full length His-tagged MAP2K2 expressed in baculovirus expression system at 2 uM using Ser/Thr 03 as substrate measured after 1 hr by Z'-LYTE assay relative to control
Sequence of Dual specificity mitogen-activated protein kinase kinase 2 (Homo sapiens) (P36507 whole entry): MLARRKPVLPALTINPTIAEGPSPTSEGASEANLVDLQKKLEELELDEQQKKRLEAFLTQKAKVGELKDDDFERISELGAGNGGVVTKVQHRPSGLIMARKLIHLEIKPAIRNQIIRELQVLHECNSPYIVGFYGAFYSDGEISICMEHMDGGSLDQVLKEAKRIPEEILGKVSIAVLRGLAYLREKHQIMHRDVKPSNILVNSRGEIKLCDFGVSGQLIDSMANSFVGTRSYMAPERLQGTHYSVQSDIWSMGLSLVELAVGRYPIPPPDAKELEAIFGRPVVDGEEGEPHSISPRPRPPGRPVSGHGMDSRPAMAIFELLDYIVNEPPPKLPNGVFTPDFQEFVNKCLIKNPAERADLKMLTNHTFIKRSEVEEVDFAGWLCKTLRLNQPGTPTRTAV

[6] = biological target: Tyrosine-protein kinase Yes (Homo sapiens) (UniProt P07947); experiment: Inhibition of recombinant human full length GST-tagged YES1 expressed in insect cells at 2 uM using Ser/Thr 07 as substrate measured after 1 hr by Z'-LYTE assay relative to control; conditions: Insect cell
[7] = biological target: Mitogen-activated protein kinase kinase kinase 9 (Homo sapiens) (UniProt P80192); experiment: Inhibition of recombinant human GST-tagged MAP3K9 (1-500 residues) expressed in insect cells at 2 uM using Ser/Thr 07 as substrate measured after 1 hr by Z'-LYTE assay relative to control; conditions: Insect cell
[8] = biological target: Serine/threonine-protein kinase Nek2 (Homo sapiens) (UniProt P51955); experiment: Inhibition of recombinant human full length His-tagged NEK2 expressed in baculovirus expression system at 2 uM using Ser/Thr 07 as substrate measured after 1 hr by Z'-LYTE assay relative to control
[9] = biological target: Fibroblast growth factor receptor 4 (Homo sapiens) (UniProt P22455); experiment: Inhibition of recombinant human His-tagged FGFR4 ([…] residues) expressed in insect cells at 2 uM using Tyr 04 as substrate measured after 1 hr by Z'-LYTE assay relative to control; conditions: Insect cell
Sequence of Fibroblast growth factor receptor 4 (Homo sapiens) (P22455 22-802 limits assumed): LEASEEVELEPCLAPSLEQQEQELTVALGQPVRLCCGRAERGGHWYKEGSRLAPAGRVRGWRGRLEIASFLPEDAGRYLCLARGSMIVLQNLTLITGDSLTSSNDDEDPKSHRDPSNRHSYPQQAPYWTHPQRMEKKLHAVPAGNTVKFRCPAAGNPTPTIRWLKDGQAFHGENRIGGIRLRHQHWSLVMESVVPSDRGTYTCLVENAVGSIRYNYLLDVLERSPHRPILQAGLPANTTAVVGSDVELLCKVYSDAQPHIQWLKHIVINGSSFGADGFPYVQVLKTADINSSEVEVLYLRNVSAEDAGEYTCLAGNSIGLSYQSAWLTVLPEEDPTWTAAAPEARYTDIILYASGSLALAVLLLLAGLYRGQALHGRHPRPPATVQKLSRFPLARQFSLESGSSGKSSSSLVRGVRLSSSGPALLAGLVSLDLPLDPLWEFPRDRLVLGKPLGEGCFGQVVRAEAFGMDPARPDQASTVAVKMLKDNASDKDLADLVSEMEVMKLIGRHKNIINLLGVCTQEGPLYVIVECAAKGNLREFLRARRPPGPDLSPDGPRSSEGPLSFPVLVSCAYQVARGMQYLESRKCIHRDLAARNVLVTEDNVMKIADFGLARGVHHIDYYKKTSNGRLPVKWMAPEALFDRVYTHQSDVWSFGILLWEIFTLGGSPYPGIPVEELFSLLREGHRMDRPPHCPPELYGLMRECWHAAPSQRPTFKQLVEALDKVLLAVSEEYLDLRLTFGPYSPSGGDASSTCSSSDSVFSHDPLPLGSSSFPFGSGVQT

[10] = biological target: T1, Serine/threonine-protein kinase mTOR (Homo sapiens, UniProt P42345); experiment: Inhibition of human full-length Flag-tagged mTOR expressed in HEK293 cells using His6-S6K as substrate measured after 2 hrs in presence of ATP by DELFIA
[11] = test system: Proto-oncogene tyrosine-protein kinase receptor Ret (Homo sapiens), P07949 [V804L]; experiment: Inhibition of recombinant human GST-tagged RET V804L mutant (658-1114 residues) expressed in baculovirus expression system at 2 uM using Tyr 02 as substrate measured after 1 hr by Z'-LYTE assay relative to control
[12] = biological target: Tyrosine-protein kinase Fer (Homo sapiens) (UniProt P16591); experiment: Inhibition of recombinant human His-tagged FER (541-822 residues) expressed in baculovirus expression system at 2 uM using Tyr 05 as substrate measured after 1 hr by Z'-LYTE assay relative to control
[13] = biological target: Receptor-type tyrosine-protein kinase FLT3 (Homo sapiens) (UniProt P36888); experiment: Inhibition of recombinant human His-tagged FLT3 (564-958 residues) expressed in insect cells at 2 uM using Tyr 02 as substrate measured after 1 hr by Z'-LYTE assay relative to control; conditions: Insect cell
Sequence of Receptor-type tyrosine-protein kinase FLT3 (Homo sapiens) (P36888 whole entry, the tested form may be a part): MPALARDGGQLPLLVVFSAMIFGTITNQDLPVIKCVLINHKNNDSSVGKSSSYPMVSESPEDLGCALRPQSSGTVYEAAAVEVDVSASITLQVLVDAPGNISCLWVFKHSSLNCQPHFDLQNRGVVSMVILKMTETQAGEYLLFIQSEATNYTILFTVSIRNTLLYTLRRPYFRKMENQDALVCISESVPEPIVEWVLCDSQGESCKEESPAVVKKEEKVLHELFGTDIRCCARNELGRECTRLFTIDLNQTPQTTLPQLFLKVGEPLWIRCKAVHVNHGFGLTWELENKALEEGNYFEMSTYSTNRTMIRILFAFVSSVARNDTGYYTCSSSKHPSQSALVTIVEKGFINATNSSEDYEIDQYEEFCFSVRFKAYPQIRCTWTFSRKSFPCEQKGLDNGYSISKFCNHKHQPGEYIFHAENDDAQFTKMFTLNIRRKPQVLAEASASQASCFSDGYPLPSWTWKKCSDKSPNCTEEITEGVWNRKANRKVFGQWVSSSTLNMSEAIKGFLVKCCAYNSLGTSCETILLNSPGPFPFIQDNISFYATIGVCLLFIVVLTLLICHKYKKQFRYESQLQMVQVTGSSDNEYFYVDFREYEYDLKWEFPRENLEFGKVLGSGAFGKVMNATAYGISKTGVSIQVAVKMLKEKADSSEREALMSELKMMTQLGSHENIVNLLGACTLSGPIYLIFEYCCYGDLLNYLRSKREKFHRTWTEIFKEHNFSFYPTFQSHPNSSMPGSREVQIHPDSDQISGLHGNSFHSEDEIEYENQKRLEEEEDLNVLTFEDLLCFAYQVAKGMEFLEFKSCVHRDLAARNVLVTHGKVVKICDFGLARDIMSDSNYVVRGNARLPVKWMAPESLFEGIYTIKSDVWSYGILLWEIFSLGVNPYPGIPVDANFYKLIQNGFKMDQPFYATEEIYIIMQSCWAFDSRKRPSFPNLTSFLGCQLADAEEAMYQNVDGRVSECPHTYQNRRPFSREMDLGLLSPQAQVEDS

[14] = biological target: Calcium/calmodulin-dependent protein kinase type II subunit delta (Homo sapiens) (UniProt Q13557); experiment: Inhibition of recombinant human full-length His-tagged CAMK2D expressed in insect cells at 2 uM using Ser/Thr 04 as substrate measured after 1 hr by Z'-LYTE assay relative to control; conditions: Insect cell
[15] = test system: NCI-H157; experiment: Antiproliferative activity against human NCI-H157 cells assessed as cell growth inhibition incubated for 24 hrs by MTS assay; type: functional, cell-based; conditions: NCI-H157, 24 h
[16] = test system: MDA-MB-361; experiment: Antitumor activity against human MDA-MB-361 cells xenografted in female nude mouse model assessed as tumor growth delay at 5 mg/kg, po qd administered as 5 days on/2 days off regimen for 4 cycles; type: functional, organism-based; conditions: time 28.0 day
[17] = test system: PC3MM2; experiment: Antitumor activity against human PC3MM2 cells xenografted in female nude mouse model assessed as suppression in P-S6K at T389 level at 50 mg/kg, iv administered once a week and measured at least 8 hrs by immunoblot analysis; type: functional, organism-based
[18] = biological target: Protein kinase C alpha type (Homo sapiens) (UniProt P17252); experiment: Inhibition of recombinant human full length GST-tagged PRKCA expressed in baculovirus expression system at 2 uM using Ser/Thr 07 as substrate measured after 1 hr by Z'-LYTE assay relative to control
[19] = biological target: MAP kinase-activated protein kinase 5 (Homo sapiens) (UniProt Q8IW41); experiment: Inhibition of recombinant human full length His-tagged MAPKAPK5 expressed in baculovirus expression system at 2 uM using Ser/Thr 04 as substrate measured after 1 hr by Z'-LYTE assay relative to control
[20] = biological target: Serine/threonine-protein kinase Nek7 (Homo sapiens) (UniProt Q8TDX7); experiment: Inhibition of recombinant human His-tagged NEK7 (8-313 residues) expressed in insect cells at 2 uM using Ser/Thr 22 as substrate measured after 1 hr by Z'-LYTE assay relative to control; conditions: Insect cell
[21] = biological target: T1, Serine/threonine-protein kinase mTOR; conditions: HEK293, dose 0.1-1 nM, time 20.0 min
[22] = test system: LNCaP; experiment: Antiproliferative activity against human LNCaP cells assessed as cell growth inhibition at 10 micromol/L incubated for 3 days by MTS assay relative to control; type: functional; conditions: 72 h, dose 10 µmol/L, time 3 day
[23] = test system: MDA-MB-361; experiment: Antitumor activity against human MDA-MB-361 cells xenografted in female nude mouse model assessed as reduction in P-AKT at T308 level at 50 mg/kg, iv administered once a week and measured at least 8 hrs by immunoblot analysis; type: functional, organism-based
[24] = biological target: Tyrosine-protein kinase receptor UFO (Homo sapiens) (UniProt P30530); experiment: Inhibition of recombinant human His-tagged AXL (473 to end residues) expressed in insect cells at 2 uM using Tyr 06 as substrate measured after 1 hr by Z'-LYTE assay relative to control; conditions: Insect cell
Sequence of Tyrosine-protein kinase receptor UFO (Homo sapiens) (P30530 whole entry): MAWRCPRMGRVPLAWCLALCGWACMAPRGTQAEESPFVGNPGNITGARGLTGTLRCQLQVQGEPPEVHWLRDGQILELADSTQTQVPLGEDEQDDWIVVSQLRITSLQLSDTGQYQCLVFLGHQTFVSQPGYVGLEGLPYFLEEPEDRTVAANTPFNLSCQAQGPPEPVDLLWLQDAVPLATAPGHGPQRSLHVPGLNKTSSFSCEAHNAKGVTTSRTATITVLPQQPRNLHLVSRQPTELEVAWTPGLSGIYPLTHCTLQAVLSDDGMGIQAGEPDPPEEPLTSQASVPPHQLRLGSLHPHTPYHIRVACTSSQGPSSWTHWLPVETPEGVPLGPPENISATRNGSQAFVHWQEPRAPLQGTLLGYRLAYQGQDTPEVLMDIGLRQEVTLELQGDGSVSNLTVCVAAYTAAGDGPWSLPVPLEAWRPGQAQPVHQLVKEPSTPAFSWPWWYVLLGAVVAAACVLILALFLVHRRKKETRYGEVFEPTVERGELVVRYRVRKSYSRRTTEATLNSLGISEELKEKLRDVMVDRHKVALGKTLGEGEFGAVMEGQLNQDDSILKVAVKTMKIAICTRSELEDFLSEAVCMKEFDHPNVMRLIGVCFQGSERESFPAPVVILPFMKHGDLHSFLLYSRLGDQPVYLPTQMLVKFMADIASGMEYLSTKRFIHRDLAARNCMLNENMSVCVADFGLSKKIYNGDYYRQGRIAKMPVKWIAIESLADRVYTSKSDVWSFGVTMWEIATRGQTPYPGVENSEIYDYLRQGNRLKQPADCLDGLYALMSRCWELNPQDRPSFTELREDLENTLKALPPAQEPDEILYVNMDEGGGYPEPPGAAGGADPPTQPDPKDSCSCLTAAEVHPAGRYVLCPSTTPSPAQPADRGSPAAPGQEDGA

[25] = test system: MDA-MB-361; experiment: Antitumor activity against human MDA-MB-361 cells xenografted in female nude mouse model assessed as induction in PARP cleavage at 50 mg/kg, po qd administered as 5 days on/2 days off regimen for 4 cycles by immunoblot analysis; type: functional, organism-based; conditions: time 28.0 day
[26] = test system: MDA-MB-361; experiment: Antitumor activity against human MDA-MB-361 cells assessed as block the hypoxia-induced lactate production in low oxygen at 0.3 micromol/L incubated for 24 hrs; type: functional, cell-based; conditions: dose 0.3 µmol/L

## CNC(=O)Nc1ccc(-c2nc(N3CC4CCC(C3)O4)c3cnn(C4CCC5(CC4)OCCO5)c3n2)cc1
[1]
  inhibition: 1%
[2]
  IC50: 20000 nM
[3]
  inhibition: -1%
[4]
  inhibition: 2%
[5]
  inhibition: 2%
[6]
  inhibition: 2%
[7]
  inhibition: 11%
[8]
  inhibition: 10%
[9]
  inhibition: 4%
[10]
  IC50: 0.19 nM
[11]
  inhibition: 2%
[12]
  inhibition: 5%
[13]
  inhibition: 17%
[14]
  inhibition: 11%
[15]
  IC50: 145 nM
[16]
  Activity: Active
[17]
  Activity: Active
[18]
  inhibition: 10%
[19]
  inhibition: 5%
[20]
  inhibition: -3%
[21]
  inhibition: Active
[22]
  inhibition at 10 µM: 100%
[23]
  Activity: inactive
[24]
  inhibition: 2%
[25]
  Activity: Active
[26]
  Activity: Active
